Assays:
[1] = target: PI3Kγ (Homo sapiens, UniProt P48736); assay: PI3K-gamma fluorescence polarization assay; type: biochemical; settings: read-out: PI3Kγ Median IC50
[2] = target: PI3Kα (Homo sapiens, UniProt P42336); assay: PI3K-alpha fluorescence polarization assay; type: biochemical; settings: read-out: PI3Kα Median IC50
[3] = target: mTOR (Homo sapiens, UniProt P42345); assay: mTOR enzyme assay (DELFIA format, His6-S6K substrate); type: biochemical; settings: read-out: mTOR Kinase Median IC50

Chain of PI3Kγ (P48736 whole entry, species assumed): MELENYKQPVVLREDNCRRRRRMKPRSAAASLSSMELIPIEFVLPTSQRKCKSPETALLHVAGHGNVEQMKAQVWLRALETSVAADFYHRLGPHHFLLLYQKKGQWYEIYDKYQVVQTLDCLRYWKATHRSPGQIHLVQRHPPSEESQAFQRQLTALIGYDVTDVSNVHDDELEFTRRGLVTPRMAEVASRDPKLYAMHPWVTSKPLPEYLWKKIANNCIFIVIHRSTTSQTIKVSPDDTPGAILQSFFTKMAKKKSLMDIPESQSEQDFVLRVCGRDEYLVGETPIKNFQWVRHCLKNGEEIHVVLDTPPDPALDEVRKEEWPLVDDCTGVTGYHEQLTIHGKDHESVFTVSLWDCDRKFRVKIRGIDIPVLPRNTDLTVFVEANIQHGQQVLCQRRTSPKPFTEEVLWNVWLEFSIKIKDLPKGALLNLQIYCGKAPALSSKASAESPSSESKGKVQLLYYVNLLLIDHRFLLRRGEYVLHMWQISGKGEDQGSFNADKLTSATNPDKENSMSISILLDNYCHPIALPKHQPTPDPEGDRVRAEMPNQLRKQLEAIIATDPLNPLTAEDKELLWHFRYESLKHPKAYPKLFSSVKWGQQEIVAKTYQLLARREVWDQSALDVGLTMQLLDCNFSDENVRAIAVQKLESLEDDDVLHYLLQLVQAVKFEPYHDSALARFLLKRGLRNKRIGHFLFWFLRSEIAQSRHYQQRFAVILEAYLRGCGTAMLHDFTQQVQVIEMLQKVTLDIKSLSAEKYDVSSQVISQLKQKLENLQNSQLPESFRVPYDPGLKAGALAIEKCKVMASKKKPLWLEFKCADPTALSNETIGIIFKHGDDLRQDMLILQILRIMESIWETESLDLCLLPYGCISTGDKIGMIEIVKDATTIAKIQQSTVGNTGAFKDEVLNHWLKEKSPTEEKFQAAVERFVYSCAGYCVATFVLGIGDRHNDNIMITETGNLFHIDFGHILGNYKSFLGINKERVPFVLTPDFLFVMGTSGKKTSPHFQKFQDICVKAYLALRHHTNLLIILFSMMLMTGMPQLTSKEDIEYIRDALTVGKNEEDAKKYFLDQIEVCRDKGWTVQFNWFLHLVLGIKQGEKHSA
Chain of PI3Kα (P42336 whole entry, species assumed): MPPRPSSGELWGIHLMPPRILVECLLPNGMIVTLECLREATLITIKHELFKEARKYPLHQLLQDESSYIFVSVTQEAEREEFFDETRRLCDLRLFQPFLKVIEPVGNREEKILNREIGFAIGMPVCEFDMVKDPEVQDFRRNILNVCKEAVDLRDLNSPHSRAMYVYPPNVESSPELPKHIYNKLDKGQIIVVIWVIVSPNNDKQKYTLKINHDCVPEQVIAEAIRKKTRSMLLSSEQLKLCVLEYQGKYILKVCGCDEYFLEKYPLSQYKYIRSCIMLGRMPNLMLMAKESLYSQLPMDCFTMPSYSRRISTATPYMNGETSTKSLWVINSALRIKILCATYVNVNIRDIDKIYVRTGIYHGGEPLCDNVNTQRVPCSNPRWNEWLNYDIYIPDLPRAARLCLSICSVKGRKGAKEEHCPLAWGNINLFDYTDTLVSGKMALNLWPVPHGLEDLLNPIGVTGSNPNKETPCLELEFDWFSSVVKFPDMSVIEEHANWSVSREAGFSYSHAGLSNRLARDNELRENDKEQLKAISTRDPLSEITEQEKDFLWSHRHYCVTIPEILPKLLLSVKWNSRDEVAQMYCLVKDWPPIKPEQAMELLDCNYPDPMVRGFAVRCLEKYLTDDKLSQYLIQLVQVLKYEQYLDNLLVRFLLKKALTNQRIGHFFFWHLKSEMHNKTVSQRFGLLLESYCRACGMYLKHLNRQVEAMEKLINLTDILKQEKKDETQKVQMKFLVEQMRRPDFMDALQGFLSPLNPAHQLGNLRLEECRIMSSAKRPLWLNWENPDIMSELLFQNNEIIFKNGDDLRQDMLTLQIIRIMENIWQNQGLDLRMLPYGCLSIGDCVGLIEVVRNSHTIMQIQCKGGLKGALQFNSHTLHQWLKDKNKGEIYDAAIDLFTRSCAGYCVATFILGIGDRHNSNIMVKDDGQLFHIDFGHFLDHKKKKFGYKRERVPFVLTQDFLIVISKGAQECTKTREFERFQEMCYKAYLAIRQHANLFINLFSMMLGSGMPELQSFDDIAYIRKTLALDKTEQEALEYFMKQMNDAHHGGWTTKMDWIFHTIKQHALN
Chain of PI3Kα (P27986 whole entry partner, species assumed): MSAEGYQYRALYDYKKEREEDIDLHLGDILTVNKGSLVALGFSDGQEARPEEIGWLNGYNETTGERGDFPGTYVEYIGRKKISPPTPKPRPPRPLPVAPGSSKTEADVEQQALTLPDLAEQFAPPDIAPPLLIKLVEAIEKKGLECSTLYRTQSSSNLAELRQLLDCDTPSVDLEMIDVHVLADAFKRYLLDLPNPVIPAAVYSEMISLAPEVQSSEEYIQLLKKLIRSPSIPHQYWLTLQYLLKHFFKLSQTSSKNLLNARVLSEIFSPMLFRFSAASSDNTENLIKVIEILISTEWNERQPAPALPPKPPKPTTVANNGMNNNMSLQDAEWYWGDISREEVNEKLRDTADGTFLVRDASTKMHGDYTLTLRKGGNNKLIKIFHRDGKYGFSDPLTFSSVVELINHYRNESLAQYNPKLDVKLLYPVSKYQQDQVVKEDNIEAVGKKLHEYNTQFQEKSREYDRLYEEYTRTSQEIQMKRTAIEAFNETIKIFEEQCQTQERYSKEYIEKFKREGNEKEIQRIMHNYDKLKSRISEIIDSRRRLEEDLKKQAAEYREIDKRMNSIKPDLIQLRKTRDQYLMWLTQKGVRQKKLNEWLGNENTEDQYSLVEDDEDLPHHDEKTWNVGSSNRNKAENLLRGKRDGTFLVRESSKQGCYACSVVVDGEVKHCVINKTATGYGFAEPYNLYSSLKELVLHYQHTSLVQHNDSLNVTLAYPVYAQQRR

Row | Structure (SMILES) | IC50 [1] [nM] | melting point | IC50 [2] [nM] | IC50 [3] [nM]
1 | Cn1cc(/C=C2\Oc3cccc(O)c3C2=O)c2c(N3CC4CC3CN4)ccnc21 (stereo not drawn) [Compound 101, (2Z)-2-{[4-(2,5-diazabicyclo[2.2.1]hept-2-yl)-1-methyl-1H-pyrrolo[2,3-b]pyridin-3-yl]methylene}-4-hydroxy-1-benzofuran-3(2H)-one] | 339 | 325 °C | 20 | 10.8
2 | Cn1cc(/C=C2\Oc3cccc(O)c3C2=O)c2c(N3CCN(C(=O)N4CCCC4)CC3)ccnc21 [Compound 104, (2Z)-4-hydroxy-2-({1-methyl-4-[4-(pyrrolidin-1-ylcarbonyl)piperazin-1-yl]-1H-pyrrolo[2,3-b]pyridin-3-yl}methylene)-1-benzofuran-3(2H)-one] | 245 | 223 to 225 °C | 70 | 2.9
3 | Cn1cc(/C=C2\Oc3cccc(O)c3C2=O)c2c(N3CC4(C)CC3CC(C)(C)C4)ccnc21 (stereo not drawn) [Compound 105, (2Z)-4-hydroxy-2-{[1-methyl-4-(1,3,3-trimethyl-6-azabicyclo[3.2.1]oct-6-yl)-1H-pyrrolo[2,3-b]pyridin-3-yl]methylene}-1-benzofuran-3(2H)-one] | > 10000 | 220 to 223 °C | > 10000 | 69
4 | Cn1cc(/C=C2\Oc3cccc(O)c3C2=O)c2c(N3CCCC(C(=O)N4CCCC4)C3)ccnc21 (stereo not drawn) [Compound 109, (2Z)-4-hydroxy-2-({1-methyl-4-[3-(pyrrolidin-1-ylcarbonyl)piperidin-1-yl]-1H-pyrrolo[2,3-b]pyridin-3-yl}methylene)-1-benzofuran-3(2H)-one] | 253 | 235 to 240 °C | 152 | 4.4
5 | CN(C)C(=O)c1ccc(-c2ccnc3c2c(/C=C2\Oc4cccc(O)c4C2=O)cn3C)cc1 [Compound 111, 4-{3-[(Z)-(4-hydroxy-3-oxo-1-benzofuran-2(3H)-ylidene)methyl]-1-methyl-1H-pyrrolo[2,3-b]pyridin-4-yl}-N,N-dimethylbenzamide] | 66 | 212 to 218 °C | 36 | 0.5
6 | Cn1cc(/C=C2\Oc3cccc(O)c3C2=O)c2c(N3CCC(CN)CC3)ccnc21 [Compound 115, (2Z)-2-({4-[4-(aminomethyl)piperidin-1-yl]-1-methyl-1H-pyrrolo[2,3-b]pyridin-3-yl}methylene)-4-hydroxy-1-benzofuran-3(2H)-one] | 208 | 230 to 238 °C | 155 | 17
7 | Cn1cc(/C=C2\Oc3cccc(O)c3C2=O)c2c(N3CC4CC3CO4)ccnc21 (stereo not drawn) [Compound 117, (2Z)-4-hydroxy-2-{[1-methyl-4-(2-oxa-5-azabicyclo[2.2.1]hept-5-yl)-1H-pyrrolo[2,3-b]pyridin-3-yl]methylene}-1-benzofuran-3(2H)-one] | 88 | 258 to 263 °C | 30 | 4.4
8 | CN(C)CCCN1CCN(c2ccnc3c2c(/C=C2\Oc4cccc(O)c4C2=O)cn3C)CC1 [Compound 118, (2Z)-2-[(4-{4-[3-(dimethylamino)propyl]piperazin-1-yl}-1-methyl-1H-pyrrolo[2,3-b]pyridin-3-yl)methylene]-4-hydroxy-1-benzofuran-3(2H)-one] | 791 | 263 to 268 °C | 286 | 20
9 | CN1CCN(C2CCN(c3ccnc4c3c(/C=C3\Oc5cccc(O)c5C3=O)cn4C)CC2)CC1 [Compound 129, (2Z)-4-hydroxy-2-({1-methyl-4-[4-(4-methylpiperazin-1-yl)piperidin-1-yl]-1H-pyrrolo[2,3-b]pyridin-3-yl}methylene)-1-benzofuran-3(2H)-one] | 167 | 239 to 242 °C | 47 | 14
10 | CNC(=O)Nc1ccc2c(c1)C(=O)/C(=C/c1cn(C)c3nccc(N4CC5CCC(C4)O5)c13)O2 [Compound 131, 1-methyl-3-[(2Z)-2-{[1-methyl-4-(8-oxa-3-azabicyclo[3.2.1]oct-3-yl)-1H-pyrrolo[2,3-b]pyridin-3-yl]methylene}-3-oxo-2,3-dihydro-1-benzofuran-5-yl]urea] | 557 | 247 to 255 °C | 580 | 9.5

Further lines, results first:

Row | IC50 [1] [nM] | melting point | IC50 [2] [nM] | IC50 [3] [nM] | Structure (SMILES)
11 | > 10000 | 235 to 240 °C | 806 | 15 | CC1CC(C)CN(c2ccnc3c2c(/C=C2\Oc4cccc(O)c4C2=O)cn3C)C1 (stereo not drawn) [Compound 100, (2Z)-2-{[4-(3,5-dimethylpiperidin-1-yl)-1-methyl-1H-pyrrolo[2,3-b]pyridin-3-yl]methylene}-4-hydroxy-1-benzofuran-3(2H)-one]
12 | 271 | 285 to 290 °C | 104 | 1.9 | Cn1cc(/C=C2\Oc3cccc(O)c3C2=O)c2c(N3CCSCC3)ccnc21 [Compound 102, (2Z)-4-hydroxy-2-[(1-methyl-4-thiomorpholin-4-yl-1H-pyrrolo[2,3-b]pyridin-3-yl)methylene]-1-benzofuran-3(2H)-one]
13 | 169 | 233 to 235 °C | 182 | 6.6 | Cn1cc(/C=C2\Oc3cccc(O)c3C2=O)c2c(-c3cccc(C(=O)N4CCCC4)c3)ccnc21 [Compound 103, (2Z)-4-hydroxy-2-({1-methyl-4-[3-(pyrrolidin-1-ylcarbonyl)phenyl]-1H-pyrrolo[2,3-b]pyridin-3-yl}methylene)-1-benzofuran-3(2H)-one]
14 | > 10000 | 244 to 254 °C | 6010 | 7.4 | Cn1cc(/C=C2\Oc3cccc(O)c3C2=O)c2c(-c3ccc(C(F)(F)F)cc3)ccnc21 [Compound 106, (2Z)-4-hydroxy-2-({1-methyl-4-[4-(trifluoromethyl)phenyl]-1H-pyrrolo[2,3-b]pyridin-3-yl}methylene)-1-benzofuran-3(2H)-one]
15 | 676 | 262 to 265 °C | 386 | 12.3 | Cn1cc(/C=C2\Oc3cccc(O)c3C2=O)c2c(-c3cccc(C(F)(F)F)c3)ccnc21 [Compound 107, (2Z)-4-hydroxy-2-({1-methyl-4-[3-(trifluoromethyl)phenyl]-1H-pyrrolo[2,3-b]pyridin-3-yl}methylene)-1-benzofuran-3(2H)-one]
16 | > 10000 | 262 to 268 °C | 6110 | 53 | Cn1cc(/C=C2\Oc3cccc(N)c3C2=O)c2c(-c3ccccc3)ccnc21 [Compound 108, (2Z)-4-amino-2-[(1-methyl-4-phenyl-1H-pyrrolo[2,3-b]pyridin-3-yl)methylene]-1-benzofuran-3(2H)-one]
17 | > 10000 | 230 to 233 °C | 651 | 82.5 | Cn1cc(/C=C2\Oc3cccc(O)c3C2=O)c2c(-c3cccc(OC(F)(F)F)c3)ccnc21 [Compound 110, (2Z)-4-hydroxy-2-({1-methyl-4-[3-(trifluoromethoxy)phenyl]-1H-pyrrolo[2,3-b]pyridin-3-yl}methylene)-1-benzofuran-3(2H)-one]
18 | 576 | 205 °C | 120 | 39 | CN(C)C1CCN(c2ccnc3c2c(/C=C2\Oc4cccc(O)c4C2=O)cn3C)C1 (stereo not drawn) [Compound 112, (2Z)-2-({4-[3-(dimethylamino)pyrrolidin-1-yl]-1-methyl-1H-pyrrolo[2,3-b]pyridin-3-yl}methylene)-4-hydroxy-1-benzofuran-3(2H)-one]
19 | 626 | 340 to 350 °C | 101 | 20 | CN(C)Cc1ccc(-c2ccnc3c2c(/C=C2\Oc4cccc(O)c4C2=O)cn3C)cc1 [Compound 113, (2Z)-2-[(4-{4-[(dimethylamino)methyl]phenyl}-1-methyl-1H-pyrrolo[2,3-b]pyridin-3-yl)methylene]-4-hydroxy-1-benzofuran-3(2H)-one]
20 | 127 | 280 to 287 °C | 29 | 0.7 | Cn1cc(/C=C2\Oc3cccc(O)c3C2=O)c2c(N3CCC(C(N)=O)CC3)ccnc21 [Compound 114, 1-{3-[(Z)-(4-hydroxy-3-oxo-1-benzofuran-2(3H)-ylidene)methyl]-1-methyl-1H-pyrrolo[2,3-b]pyridin-4-yl}piperidine-4-carboxamide]
21 | 425 | 220 to 223 °C | 369 | 18 | CN(C)C(=O)c1cccc(-c2ccnc3c2c(/C=C2\Oc4cccc(O)c4C2=O)cn3C)c1 [Compound 121, 3-{3-[(Z)-(4-hydroxy-3-oxo-1-benzofuran-2(3H)-ylidene)methyl]-1-methyl-1H-pyrrolo[2,3-b]pyridin-4-yl}-N,N-dimethylbenzamide]
22 | 279 | 308 to 315 °C | 60 | 18 | CN(C)Cc1cccc(-c2ccnc3c2c(/C=C2\Oc4cccc(O)c4C2=O)cn3C)c1 [Compound 122, (2Z)-2-[(4-{3-[(dimethylamino)methyl]phenyl}-1-methyl-1H-pyrrolo[2,3-b]pyridin-3-yl)methylene]-4-hydroxy-1-benzofuran-3(2H)-one]
23 | 83 | 175 °C | 33 | 1.7 | CNC(=O)c1ccc(-c2ccnc3c2c(/C=C2\Oc4cccc(O)c4C2=O)cn3C)cc1 [Compound 132, 4-{3-[(Z)-(4-hydroxy-3-oxo-1-benzofuran-2(3H)-ylidene)methyl]-1-methyl-1H-pyrrolo[2,3-b]pyridin-4-yl}-N-methylbenzamide]
24 | 30 | 298 to 305 °C (dec.) | 37 | 1.5 | CNC(=O)Nc1ccc(-c2ccnc3c2c(/C=C2\Oc4cccc(O)c4C2=O)cn3C)cc1 [Compound 133, 1-(4-{3-[(Z)-(4-hydroxy-3-oxo-1-benzofuran-2(3H)-ylidene)methyl]-1-methyl-1H-pyrrolo[2,3-b]pyridin-4-yl}phenyl)-3-methylurea]

Reference: patent US20090298820A1, “3-SUBSTITUTED-1H-PYRROLO[2,3-B]PYRIDINE AND 3-SUBSTITUTED-1H-PYRROLO[3,2-B]PYRIDINE COMPOUNDS, THEIR USE AS MTOR KINASE AND PI3 KINASE INHIBITORS, AND THEIR SYNTHESES” (Wyeth, priority 2008, published 2009)
